Patent US20190231822A1, “METHODS OF REDUCING CHRONIC GRAFT-VERSUS-HOST DISEASE” (Regents of the University of Minnesota, priority 2016, published 2019)

Tested on: cGVHD
Assay: cGVHD prevention or reversal by an iNKT agonist
Type: in vivo
Conditions: intravascular administration

CCCCCCCCCCCCCCCCCCCCCCCCCC(=O)N[C@@H](CO[C@H]1O[C@H](CO)[C@H](O)[C@H](O)[C@H]1O)[C@H](O)[C@H](O)CCCCCCCCCCCCCC [alpha-galactosylceramide]
prevention or reversal of cGVHD: able to prevent or reverse cGVHD
